The text below walks through data of patent US12521356B2, “Compositions and methods for treating pain, inflammation, infection, malaria, and sepsis” (Duke University, priority 2018, dated 2026).

The target in experiment [1] is T1, GPR37 (Mus musculus, UniProt Q9QY42).
T1 sequence (Q9QY42 27-600): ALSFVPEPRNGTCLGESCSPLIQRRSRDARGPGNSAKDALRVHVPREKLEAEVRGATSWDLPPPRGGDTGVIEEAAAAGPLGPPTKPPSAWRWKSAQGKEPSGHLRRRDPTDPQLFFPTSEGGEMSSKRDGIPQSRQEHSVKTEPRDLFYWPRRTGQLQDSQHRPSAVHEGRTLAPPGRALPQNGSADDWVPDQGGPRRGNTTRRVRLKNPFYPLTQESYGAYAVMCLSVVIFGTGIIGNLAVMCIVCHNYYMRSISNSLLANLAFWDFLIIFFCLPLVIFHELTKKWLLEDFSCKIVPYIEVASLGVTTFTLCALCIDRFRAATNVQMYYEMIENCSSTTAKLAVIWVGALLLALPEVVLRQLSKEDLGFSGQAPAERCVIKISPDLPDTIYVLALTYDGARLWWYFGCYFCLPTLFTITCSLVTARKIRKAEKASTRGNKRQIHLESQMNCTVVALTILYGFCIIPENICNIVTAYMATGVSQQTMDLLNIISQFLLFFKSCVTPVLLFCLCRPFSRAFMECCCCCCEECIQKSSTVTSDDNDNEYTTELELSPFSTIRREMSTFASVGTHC
The experiment is described as follows: Ca2+ imaging (Fluo-4AM) in peritoneal macrophages (pMΦ) from WT and Gpr37−/− mice. To be noted: for iCa2+ levels: 100 nM. The format is cell-based. As to the method:
Peritoneal macrophage culture. Peritoneal macrophages were collected by peritoneal lavage with 10 ml warm PBS containing of 1 mM EDTA. Cells were incubated in DMEM supplemented with 10% FBS at 37° C. for 2 h in petri dish and washed with PBS to eliminate non-adherent cells. The adherent cells were used as peritoneal macrophages. Peritoneal macrophages were used after 3 days of culture.
(§1) Calcium imaging. HEK 293 cells, with or without transfection of Gpr37, GPR32, ChemR23 or ALX1 cDNA, were loaded with 5 μM Fura-2AM (Invitrogen) for 1 hour and then were resuspended in normal external buffer (140 NaCl, 5 KCl, 2 CaCl2, 2 MgCl2, 10 HEPES, in mM, titrated to pH 7.4 with NaOH) or external Ca^2+-free buffer (140 NaCl, 2 MgCl2, 5 EGTA, 10 HEPES, in mM, titrated to pH 7.4 with NaOH). Peritoneal macrophages, collected from WT and Gpr37 KO mice, were loaded with 5 μM […] (Invitrogen) for 1 hour and then were resuspended in normal external buffer. Images of the HEK 293 cells and macrophages with the excitation wavelength of 340 nm and 380 nm were captured with a cooled Digital CMOS camera (ORCA-Flash 4.0, Hamamatsu Photonics K.K, Japan). The ratio of fluorescence intensity of the two wavelengths in each experiment was analyzed using MetaFluor (Molecular Devices). The Shutter speed and wavelength was controlled by Lambda DG-4 system (Sutter instrument Co., Novato, CA). Values from each of the experiments were normalized to the baseline ratio of 340/380 nm.
Next, we conducted GPR37-mediated Ca^2+ imaging in native pMΦ from WT and Gpr37^−/− mice using Fluo-4AM as a Ca^2+ indicator, since this dye works better than Fura-2AM for pMΦ. […] As compared to iCa^2+ increase in GPR37-expressing HEK293 cells, NPD1 trigger a slow-onset but more persistent Ca^2+ response in pMΦ (FIG. 2B and FIG. 2G). A relatively rapid calcium response in HEK293 cells may result from over-expression of GPR37. A sustained iCa^2+ increase in pMΦ may result from the expression of transient receptor potential (TRP) ion channels in these immune cells. It is noteworthy that macrophages express TRPV2 or TRPM2, which are involved in phagocytosis during bacterial infection. […] NPD1-triggered iCa^2+ increase in pMΦ is also Gi-dependent, since PTX blocked this increase (FIG. 2H). For comparison, ATP-evoked iCa^2+ increase was not altered in GPR37-deficient pMΦ (FIG. 2H).

For experiment [2], the target named is T2, ChemR23 (Homo sapiens, UniProt Q99788).
T2 construct: host or cells: HEK293 flip-in cells
T2 sequence (Q99788 1-373): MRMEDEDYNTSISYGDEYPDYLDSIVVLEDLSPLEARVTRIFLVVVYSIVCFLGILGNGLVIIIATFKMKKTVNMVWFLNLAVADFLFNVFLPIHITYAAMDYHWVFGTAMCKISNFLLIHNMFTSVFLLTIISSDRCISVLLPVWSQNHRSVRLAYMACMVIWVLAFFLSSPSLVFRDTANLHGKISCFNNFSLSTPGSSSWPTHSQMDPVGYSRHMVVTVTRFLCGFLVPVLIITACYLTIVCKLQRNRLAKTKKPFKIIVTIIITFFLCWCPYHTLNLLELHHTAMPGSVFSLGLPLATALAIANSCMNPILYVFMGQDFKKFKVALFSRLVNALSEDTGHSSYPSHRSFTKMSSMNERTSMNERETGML
In words: Ca2+ imaging (Fura-2AM) in HEK293 cells transfected with ChemR23 cDNA. The format is cell-based. The note with it: HEK293 cells expressing ChemR23; RvE1 100 nM.
From the text: FIG. 10A-FIG. 10C. Characterization of intracellular Ca^2+ changes in HEK293 cells expressing ChemR23, GPR32, and ALX. Ca^2+ imaging with Fura-2AM indicator showing iCa^2+ levels in HEK293 cells transfected with ChemR23 (FIG. 10A), GPR32 (FIG. 10B), and ALX (FIG. 10C) cDNAs. Note that NPD1 fails to elicit iCa^2+ increase in HEK293 cells expressing ChemR23, GPR32, and ALX. […] ATP is included as a positive control. *P<0.05, compared with baseline n=44˜97 cells from 3 cultures. All the data are expressed as mean±s.e.m.
HEK cell culture and transfection. HEK293 flip-in cell line was purchased from Duke Cell Culture Facility. Cells were cultured in high glucose (4.5 g/L) Dulbecco's Modified Eagle's Medium containing 10% (v/v) fetal bovine serum (Gibco). Transfection (2 μg cDNA) was performed with Lonza electroporation (Lonza) at 70% confluency and the transfected cells were cultured in the same growth medium for 48 h before use. The hGPR37-V5 pLenti304 plasmids were obtained from DNASU (Tempe, AZ), and hGPR32, hChemR23 and hALX pcDNA3 plasmids were provided by Dr. Serhan from Harvard Medical School, Boston.
as §1, with “Values from each of the experiments were normalized to the baseline ratio of 340/380 nm.” left out

In the case of `CC/C=C\C[C@H](O)\C=C/C=C/C=C/[C@H](O)C/C=C\C/C=C\CCC(=O)O` [NPD1, neuroprotectin D1], the “iCa2+ increase” value in experiment [1] (30 nM, WT pMΦ) is “robust and sustained iCa^2+ increase”. The EC50 in experiment [1] (pMΦ, dose response, read-out: EC50 of iCa2+ increase) stood at 19.5 nM. Further, the “iCa2+ increase / Ca2+ response” value in experiment [2] is “failed to elicit iCa^2+ increase”.

As for `CC/C=C\C[C@H](O)/C=C/C=C\C=C\C=C\[C@@H](O)[C@@H](O)C/C=C\CCC(=O)O` [RvD1], in experiment [1] (pMΦ), the “iCa2+ levels” value is given as “did not alter iCa^2+ levels”.

`CC[C@@H](O)/C=C/C=C\C[C@@H](O)/C=C/C=C/C=C\[C@@H](O)CCCC(=O)O` [RvE1]: in experiment [1] (pMΦ), the “iCa2+ levels” value is “did not alter iCa^2+ levels”. In addition, the “iCa2+ increase / Ca2+ response” value in experiment [2] is on record as “failed to evoke Ca^2+ responses”.
